Here are results for six molecules from ChEMBL document CHEMBL1201862, “PubChem BioAssay data set” (2004).

Test [1] deals with T1, Tyrosine-protein phosphatase non-receptor type 7 (Homo sapiens, UniProt P35236).
T1 sequence (P35236 whole entry): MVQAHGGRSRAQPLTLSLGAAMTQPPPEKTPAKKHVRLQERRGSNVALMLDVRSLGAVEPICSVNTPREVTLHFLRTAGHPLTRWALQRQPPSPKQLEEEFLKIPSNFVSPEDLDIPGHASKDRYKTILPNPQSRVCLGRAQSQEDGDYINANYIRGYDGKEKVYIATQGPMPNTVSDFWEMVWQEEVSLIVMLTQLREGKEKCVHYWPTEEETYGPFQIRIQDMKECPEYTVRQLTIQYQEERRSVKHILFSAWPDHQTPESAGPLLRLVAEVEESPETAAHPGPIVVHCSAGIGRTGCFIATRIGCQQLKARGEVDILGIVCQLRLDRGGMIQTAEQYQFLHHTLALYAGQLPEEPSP
Put plainly: Dose Response confirmation of compounds that inhibit HePTP. [Related pubchem assays (depositor defined):AID1059, AID1661, AID2085]. It is filed as functional.

Test [2] concerns the target Dual specificity protein phosphatase 3 (Homo sapiens, UniProt P51452). Put plainly: Dose Response Confirmation of compounds that inhibit VHR1 in Fluorescent Assay. [Related pubchem assays (depositor defined):AID1661, AID1878]. It is filed as functional.
Test [3] deals with Photoreceptor-specific nuclear receptor (Homo sapiens, UniProt Q9Y5X4). The test is described as follows: NR2E3 inverse agonists, dose response, biochemical, TR-FRET (AID 463256). It is filed as functional. A general note: In TR-FRET formats the signal depends on donor and acceptor labels being close together.
The target in test [4] is Peroxisome proliferator-activated receptor gamma/Nuclear receptor corepressor 2 (Homo sapiens, UniProt P37231+Q9Y618). Put plainly: Counterscreen for NR2E3 inverse agonists: TR-FRET-based biochemical high throughput dose response assay to identify inverse agonists of the interaction between peroxisome proliferator-activated receptor gamma (PPARg) and nuclear receptor co-repressor 2 (NCOR2). It is filed as functional. (A counterscreen serves to expose hits that act by an unwanted route or on another target.)

The target in a further test is T2, Protein RecA (Mycobacterium tuberculosis, UniProt P9WHJ3).
T2 sequence (P9WHJ3 whole entry): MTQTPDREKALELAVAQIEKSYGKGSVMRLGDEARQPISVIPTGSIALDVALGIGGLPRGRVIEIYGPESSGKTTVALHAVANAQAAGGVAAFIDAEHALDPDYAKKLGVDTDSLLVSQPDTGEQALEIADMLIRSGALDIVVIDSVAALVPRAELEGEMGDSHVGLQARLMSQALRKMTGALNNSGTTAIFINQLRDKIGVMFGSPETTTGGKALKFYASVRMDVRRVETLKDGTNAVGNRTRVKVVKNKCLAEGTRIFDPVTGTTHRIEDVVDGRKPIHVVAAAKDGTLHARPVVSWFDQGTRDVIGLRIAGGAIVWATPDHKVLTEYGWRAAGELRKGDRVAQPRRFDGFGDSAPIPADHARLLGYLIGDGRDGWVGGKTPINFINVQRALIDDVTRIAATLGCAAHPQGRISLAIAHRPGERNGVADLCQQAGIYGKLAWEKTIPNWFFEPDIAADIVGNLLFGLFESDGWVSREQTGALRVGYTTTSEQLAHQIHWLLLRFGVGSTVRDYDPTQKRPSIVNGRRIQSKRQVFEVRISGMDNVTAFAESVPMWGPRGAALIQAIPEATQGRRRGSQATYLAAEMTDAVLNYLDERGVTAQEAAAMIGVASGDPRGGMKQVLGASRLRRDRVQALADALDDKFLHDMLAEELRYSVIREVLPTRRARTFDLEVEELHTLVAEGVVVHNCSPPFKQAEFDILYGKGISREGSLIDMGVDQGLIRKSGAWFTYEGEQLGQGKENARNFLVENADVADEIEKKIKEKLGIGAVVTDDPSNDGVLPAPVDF
Put plainly: Fluorescence Cell-Free Homogeneous Dose Retest to Identify Inhibitors of RecA-Intein Splicing Activity. [Related pubchem assays (depositor defined):AID2097, AID2223, AID489010, AID492950]. It is filed as functional.

The nature of test [5]: Intein inhibitors as potential Tuberculosis drugs, a cytotoxicity screen. [Related pubchem assays (depositor defined):AID2221, AID2223, AID434968, AID435010, AID449749, AID449750, AID489010]. It is filed as functional.
Test [6] has as its system BJ. The test is described as follows: cytotoxicity toward Ras-transformed BJeLR fibroblasts, dose response, cell-based, alamar blue fluorescence, cherrypicked samples (AID 2631).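 Further: confirmatory dose-response assay in RAS-dependent BJ fibroblasts engineered with TERT, LT and ST, with cytotoxicity read by fluorescence.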 It is filed as functional. The following applies: Homo sapiens.
The test system of test [7] is BJ. Put plainly: cells. It is filed as functional, cell-based. Particulars: Homo sapiens.
In test [8] the test system is BJ. The test is described as follows: cytotoxicity toward BJ-TERT-LT-ST fibroblasts, dose response, cell-based, RAS-independent, luminescence (AID 1935).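 Further: BJ fibroblasts immortalized with TERT plus LT and ST oncogenes.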 Particulars: Homo sapiens. It is filed as functional.
Test [9] addresses T3, Replicative DNA helicase DnaB (Mycobacterium tuberculosis, UniProt P9WMR3).
T3 sequence (P9WMR3 whole entry): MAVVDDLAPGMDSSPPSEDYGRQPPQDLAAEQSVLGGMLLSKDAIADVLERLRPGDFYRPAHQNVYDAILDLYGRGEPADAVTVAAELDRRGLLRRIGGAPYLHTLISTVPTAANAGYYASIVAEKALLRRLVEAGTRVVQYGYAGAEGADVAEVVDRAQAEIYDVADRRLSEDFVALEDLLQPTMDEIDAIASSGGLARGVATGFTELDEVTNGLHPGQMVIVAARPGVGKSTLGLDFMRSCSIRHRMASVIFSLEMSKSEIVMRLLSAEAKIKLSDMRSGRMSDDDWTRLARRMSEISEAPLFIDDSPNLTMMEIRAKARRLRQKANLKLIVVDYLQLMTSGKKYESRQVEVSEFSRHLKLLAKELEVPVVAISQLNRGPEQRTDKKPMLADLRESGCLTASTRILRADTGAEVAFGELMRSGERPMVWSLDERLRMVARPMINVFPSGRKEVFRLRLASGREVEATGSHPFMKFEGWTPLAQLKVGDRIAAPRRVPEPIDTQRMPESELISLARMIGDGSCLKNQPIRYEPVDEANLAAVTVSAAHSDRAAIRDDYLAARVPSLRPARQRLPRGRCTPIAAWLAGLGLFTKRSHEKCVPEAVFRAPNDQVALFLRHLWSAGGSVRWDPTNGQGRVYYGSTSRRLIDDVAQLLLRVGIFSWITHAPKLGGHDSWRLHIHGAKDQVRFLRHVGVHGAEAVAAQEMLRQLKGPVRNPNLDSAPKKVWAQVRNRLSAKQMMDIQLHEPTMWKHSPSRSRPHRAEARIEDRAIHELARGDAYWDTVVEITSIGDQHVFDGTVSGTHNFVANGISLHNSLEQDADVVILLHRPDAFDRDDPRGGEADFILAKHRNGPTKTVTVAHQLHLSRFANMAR
The test is described as follows: DnaB intein splicing inhibitors, dose response, biochemical, cell-free fluorescence (AID 449749). It is filed as functional.

Test [10] can be described thus: cytotoxicity toward DRD oncogenic fibroblasts, dose response, cell-based, non-viral oncogenic, luminescence (AID 1934). It is filed as functional. Particulars: Homo sapiens.
Test [11] deals with BJ. The test is described as follows: cytotoxicity toward BJ-TERT fibroblasts, dose response, cell-based, RAS-independent, luminescence (AID 1933). It is filed as functional. Particulars: Homo sapiens.
Test [12] has as its target T4, Calpain-2 catalytic subunit (Sus scrofa, UniProt P43367).
T4 sequence (P43367 whole entry): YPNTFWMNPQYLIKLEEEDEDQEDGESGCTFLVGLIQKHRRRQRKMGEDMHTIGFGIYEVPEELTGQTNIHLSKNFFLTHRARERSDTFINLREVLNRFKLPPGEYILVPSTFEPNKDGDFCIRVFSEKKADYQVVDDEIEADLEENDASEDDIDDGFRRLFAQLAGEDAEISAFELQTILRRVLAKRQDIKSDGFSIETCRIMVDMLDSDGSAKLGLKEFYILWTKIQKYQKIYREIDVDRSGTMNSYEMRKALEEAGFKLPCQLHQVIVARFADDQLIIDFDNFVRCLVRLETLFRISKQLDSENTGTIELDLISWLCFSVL
The test is described as follows: pig calpain II inhibitor potency, dose response, biochemical, fluorogenic peptide substrate (AID 1420). It is filed as functional.

A further test addresses T5, Coagulation factor XII (Homo sapiens, UniProt P00748).
T5 sequence (P00748 whole entry): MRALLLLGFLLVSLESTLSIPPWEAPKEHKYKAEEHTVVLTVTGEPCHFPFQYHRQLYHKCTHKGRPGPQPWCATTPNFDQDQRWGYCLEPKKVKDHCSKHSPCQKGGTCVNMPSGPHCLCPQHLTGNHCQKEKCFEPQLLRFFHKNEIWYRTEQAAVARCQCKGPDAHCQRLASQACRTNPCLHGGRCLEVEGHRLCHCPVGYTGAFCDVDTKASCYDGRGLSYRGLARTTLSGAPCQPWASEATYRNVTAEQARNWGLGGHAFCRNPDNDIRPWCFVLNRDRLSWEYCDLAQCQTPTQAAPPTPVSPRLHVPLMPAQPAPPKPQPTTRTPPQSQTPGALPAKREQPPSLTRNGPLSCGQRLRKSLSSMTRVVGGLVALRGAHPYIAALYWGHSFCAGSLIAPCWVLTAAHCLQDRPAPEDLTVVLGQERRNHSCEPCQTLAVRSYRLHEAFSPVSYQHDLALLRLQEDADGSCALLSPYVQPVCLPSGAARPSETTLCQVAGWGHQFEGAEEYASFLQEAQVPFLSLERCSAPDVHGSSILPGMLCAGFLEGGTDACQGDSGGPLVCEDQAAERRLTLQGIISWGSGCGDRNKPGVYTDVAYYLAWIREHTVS
Put plainly: Factor XIIa Dose Response Confirmation from Single Well HTS. [Related pubchem assays (depositor defined):AID701]. It is filed as functional.

The target in test [13] is G-protein coupled receptor 55 (Homo sapiens, UniProt Q9Y2T6). The test is described as follows: GPR55 agonists via beta-arrestin recruitment, primary screen, imaging, U2OS cells, beta-arrestin-GFP redistribution (AID 1961). It is filed as functional.
Test [14] concerns the target T6, Kappa-type opioid receptor (Homo sapiens, UniProt P41145). Put plainly: SAR analysis of small molecule antagonists of the kappa opioid receptor via a luminescent beta-arrestin assay - Set 3. [Related pubchem assays (depositor defined):AID1777, AID1778, AID1785, AID1786, AID1966, AID2133, AID2136, AID2285, AID2495]. It is filed as functional.
Test [15] addresses T6, Kappa-type opioid receptor. The test is described as follows: SAR analysis of Antagonists of the Kappa Opioid Receptor (KOR) using an Image-Based Assay - Set 3. [Related pubchem assays (depositor defined):AID1777, AID1785]. It is filed as functional.
The next test addresses Mu-type opioid receptor (Homo sapiens, UniProt P35372). The test is described as follows: SAR Analysis of Antagonists of the MOR Receptor using an Image-Based Assay - Set 3. [Related pubchem assays (depositor defined):AID1777, AID1785, AID1786, AID1966, AID2133, AID2136, AID2284, AID2285, AID2420]. It is filed as functional.
The target of test [16] is Delta-type opioid receptor (Homo sapiens, UniProt P41143). The test is described as follows: SAR Analysis of Antagonists of the DOR Receptor using an Image-Based Assay - Set 3. [Related pubchem assays (depositor defined):AID1777, AID1785]. It is filed as functional.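 Further: U2OS cells expressing DOR1 and beta-arrestin GFP stimulated with 100 nM SNC80; imaging of GFP-tagged beta-arrestin moving into spots after receptor activation.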
Test [17] has as its target Sphingosine 1-phosphate receptor 4 (Homo sapiens, UniProt O95977). The test is described as follows: Late-stage fluorescence dose response cell-based assay to identify agonists of the Sphingosine 1-Phosphate Receptor 4 (S1P4): purchased compounds EC50. [Related pubchem assays (depositor defined):AID1509, AID1523, AID1563, AID1686, AID1701, AID1801]. It is filed as functional.

Calls of active or inactive are those of the source.
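Wherever CC50 is given: cells exposed to compound for 72 hours before luminescence readout.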

T6 sequence (P41145 whole entry): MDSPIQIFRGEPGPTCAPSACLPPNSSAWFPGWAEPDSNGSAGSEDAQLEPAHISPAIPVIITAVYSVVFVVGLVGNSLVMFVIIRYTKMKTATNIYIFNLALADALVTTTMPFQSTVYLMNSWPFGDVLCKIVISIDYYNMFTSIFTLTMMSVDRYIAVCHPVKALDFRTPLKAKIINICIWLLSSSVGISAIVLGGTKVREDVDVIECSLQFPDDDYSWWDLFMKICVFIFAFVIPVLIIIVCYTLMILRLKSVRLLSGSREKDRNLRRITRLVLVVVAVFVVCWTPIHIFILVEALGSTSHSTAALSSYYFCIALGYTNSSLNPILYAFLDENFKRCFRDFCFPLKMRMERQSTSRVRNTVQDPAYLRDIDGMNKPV
Peroxisome proliferator-activated receptor gamma/Nuclear receptor corepressor 2, sequence (P37231 whole entry): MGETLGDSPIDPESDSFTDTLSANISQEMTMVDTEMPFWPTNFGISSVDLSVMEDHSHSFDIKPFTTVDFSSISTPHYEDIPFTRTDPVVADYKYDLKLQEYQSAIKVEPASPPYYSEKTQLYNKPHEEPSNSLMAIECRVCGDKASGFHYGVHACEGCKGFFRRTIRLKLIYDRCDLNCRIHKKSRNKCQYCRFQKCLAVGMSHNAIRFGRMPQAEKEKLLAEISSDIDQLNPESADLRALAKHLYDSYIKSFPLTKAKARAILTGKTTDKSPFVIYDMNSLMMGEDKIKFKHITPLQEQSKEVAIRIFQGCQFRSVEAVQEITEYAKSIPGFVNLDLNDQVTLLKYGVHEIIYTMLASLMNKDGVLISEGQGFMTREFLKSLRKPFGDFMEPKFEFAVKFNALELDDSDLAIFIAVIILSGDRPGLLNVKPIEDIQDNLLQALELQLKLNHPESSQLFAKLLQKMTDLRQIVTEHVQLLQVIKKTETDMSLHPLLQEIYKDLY
Peroxisome proliferator-activated receptor gamma/Nuclear receptor corepressor 2, sequence (Q9Y618 whole entry): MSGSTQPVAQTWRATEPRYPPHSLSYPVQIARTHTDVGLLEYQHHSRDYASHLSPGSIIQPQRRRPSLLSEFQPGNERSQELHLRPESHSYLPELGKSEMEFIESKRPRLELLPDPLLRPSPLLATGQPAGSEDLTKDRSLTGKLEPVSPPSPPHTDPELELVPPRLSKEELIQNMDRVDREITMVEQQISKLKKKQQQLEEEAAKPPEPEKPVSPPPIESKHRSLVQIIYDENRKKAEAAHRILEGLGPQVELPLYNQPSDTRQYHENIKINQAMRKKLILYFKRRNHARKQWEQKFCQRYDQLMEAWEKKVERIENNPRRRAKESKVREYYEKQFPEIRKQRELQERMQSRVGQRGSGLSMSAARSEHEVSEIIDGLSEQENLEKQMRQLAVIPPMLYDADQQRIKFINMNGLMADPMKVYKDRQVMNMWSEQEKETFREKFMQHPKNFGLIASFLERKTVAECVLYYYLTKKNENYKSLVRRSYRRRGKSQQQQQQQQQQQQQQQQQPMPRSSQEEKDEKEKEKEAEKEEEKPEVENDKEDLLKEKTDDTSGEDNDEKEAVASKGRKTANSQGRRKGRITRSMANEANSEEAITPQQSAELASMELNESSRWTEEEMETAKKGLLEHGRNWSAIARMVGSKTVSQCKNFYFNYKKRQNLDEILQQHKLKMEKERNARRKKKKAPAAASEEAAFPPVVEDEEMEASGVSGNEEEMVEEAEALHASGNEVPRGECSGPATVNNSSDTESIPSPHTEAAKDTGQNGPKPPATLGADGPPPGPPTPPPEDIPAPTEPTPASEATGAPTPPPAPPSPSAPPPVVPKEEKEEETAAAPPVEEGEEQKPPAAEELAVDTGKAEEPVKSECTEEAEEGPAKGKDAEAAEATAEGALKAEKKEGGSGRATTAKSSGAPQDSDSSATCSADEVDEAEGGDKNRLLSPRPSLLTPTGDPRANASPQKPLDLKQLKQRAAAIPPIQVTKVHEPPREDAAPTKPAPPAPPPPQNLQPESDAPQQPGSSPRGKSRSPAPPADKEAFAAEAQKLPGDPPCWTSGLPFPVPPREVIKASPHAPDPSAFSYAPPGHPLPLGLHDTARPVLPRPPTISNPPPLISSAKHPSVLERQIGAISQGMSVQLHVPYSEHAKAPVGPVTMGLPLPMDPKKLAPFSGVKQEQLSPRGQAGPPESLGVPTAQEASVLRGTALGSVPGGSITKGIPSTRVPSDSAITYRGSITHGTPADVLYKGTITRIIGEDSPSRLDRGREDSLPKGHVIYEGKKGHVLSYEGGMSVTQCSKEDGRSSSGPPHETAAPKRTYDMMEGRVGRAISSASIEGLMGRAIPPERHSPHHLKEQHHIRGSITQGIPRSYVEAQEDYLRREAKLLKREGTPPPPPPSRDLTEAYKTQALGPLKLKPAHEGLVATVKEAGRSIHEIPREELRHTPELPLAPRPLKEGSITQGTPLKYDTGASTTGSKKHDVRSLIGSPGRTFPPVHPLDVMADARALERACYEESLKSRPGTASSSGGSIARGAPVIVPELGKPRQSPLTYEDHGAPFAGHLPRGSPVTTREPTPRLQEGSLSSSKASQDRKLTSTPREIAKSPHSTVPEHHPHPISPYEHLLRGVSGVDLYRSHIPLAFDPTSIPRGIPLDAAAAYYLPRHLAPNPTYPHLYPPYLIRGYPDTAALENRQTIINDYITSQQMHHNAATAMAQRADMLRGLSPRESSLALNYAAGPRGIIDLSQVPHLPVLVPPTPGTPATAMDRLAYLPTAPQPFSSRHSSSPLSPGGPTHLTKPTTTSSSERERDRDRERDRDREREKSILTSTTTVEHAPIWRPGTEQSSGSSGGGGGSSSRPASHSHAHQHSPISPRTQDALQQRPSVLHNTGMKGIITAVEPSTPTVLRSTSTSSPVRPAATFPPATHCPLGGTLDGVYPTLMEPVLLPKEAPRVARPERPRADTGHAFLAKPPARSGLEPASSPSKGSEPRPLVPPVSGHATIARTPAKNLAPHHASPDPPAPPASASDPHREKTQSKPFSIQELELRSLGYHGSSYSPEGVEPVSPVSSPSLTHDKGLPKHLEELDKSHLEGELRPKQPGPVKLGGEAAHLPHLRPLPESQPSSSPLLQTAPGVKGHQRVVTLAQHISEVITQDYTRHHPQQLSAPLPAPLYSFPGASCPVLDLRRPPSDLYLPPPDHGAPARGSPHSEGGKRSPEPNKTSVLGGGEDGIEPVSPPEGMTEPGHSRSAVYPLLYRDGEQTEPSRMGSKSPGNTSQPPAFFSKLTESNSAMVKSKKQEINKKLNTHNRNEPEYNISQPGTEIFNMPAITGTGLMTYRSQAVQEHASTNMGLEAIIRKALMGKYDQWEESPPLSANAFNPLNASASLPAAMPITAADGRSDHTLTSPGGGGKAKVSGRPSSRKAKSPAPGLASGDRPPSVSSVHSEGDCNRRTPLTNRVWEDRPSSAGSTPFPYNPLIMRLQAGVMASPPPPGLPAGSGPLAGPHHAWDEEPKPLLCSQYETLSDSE
Dual specificity protein phosphatase 3, sequence (P51452 whole entry): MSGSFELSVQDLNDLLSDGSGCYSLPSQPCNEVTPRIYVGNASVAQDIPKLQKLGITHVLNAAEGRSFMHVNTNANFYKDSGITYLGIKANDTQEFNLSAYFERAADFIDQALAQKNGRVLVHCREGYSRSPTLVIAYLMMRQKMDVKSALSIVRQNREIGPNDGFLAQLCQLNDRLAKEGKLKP
Delta-type opioid receptor, sequence (P41143 whole entry): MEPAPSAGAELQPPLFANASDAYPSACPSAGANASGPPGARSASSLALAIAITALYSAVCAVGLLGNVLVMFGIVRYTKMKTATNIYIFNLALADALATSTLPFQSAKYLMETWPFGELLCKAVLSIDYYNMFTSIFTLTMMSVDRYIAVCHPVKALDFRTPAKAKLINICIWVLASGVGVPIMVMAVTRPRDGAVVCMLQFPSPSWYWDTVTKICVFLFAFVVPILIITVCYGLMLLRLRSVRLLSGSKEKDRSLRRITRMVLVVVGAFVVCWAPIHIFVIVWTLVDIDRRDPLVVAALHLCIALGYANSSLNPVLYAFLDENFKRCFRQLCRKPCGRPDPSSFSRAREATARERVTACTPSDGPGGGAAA
Photoreceptor-specific nuclear receptor, sequence (Q9Y5X4 whole entry): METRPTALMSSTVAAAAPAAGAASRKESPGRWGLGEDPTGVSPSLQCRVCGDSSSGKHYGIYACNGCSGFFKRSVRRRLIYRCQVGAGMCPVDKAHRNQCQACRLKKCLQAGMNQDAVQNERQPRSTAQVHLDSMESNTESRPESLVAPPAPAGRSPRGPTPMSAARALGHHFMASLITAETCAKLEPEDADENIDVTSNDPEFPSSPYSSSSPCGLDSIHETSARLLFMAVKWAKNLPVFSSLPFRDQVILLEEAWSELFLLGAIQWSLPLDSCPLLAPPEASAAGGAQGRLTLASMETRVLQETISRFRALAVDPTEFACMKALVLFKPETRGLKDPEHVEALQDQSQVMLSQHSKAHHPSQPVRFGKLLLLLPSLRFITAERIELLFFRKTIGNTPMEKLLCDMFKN
Mu-type opioid receptor, sequence (P35372 whole entry): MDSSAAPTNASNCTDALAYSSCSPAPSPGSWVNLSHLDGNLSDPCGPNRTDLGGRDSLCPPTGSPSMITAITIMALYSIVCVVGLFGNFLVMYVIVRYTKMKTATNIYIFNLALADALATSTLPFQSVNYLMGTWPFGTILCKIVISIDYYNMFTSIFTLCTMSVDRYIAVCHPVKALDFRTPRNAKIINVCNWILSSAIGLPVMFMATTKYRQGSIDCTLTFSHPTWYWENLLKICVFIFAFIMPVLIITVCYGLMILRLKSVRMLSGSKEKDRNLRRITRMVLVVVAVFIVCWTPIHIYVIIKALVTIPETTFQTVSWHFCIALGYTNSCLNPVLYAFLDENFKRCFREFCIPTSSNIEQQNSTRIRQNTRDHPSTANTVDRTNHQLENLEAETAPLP

In general, IC50 refers to the concentration that gives 50% inhibition. With `O=C(Nc1ccc2oc(-c3cccnc3)nc2c1)c1ccc2c(c1)OCCO2`, the IC50 in [1] was 5360 nM (active); in test [2], 8430 nM (active); in [3] it was 1610 nM (active); in test [4] it was 1460 nM (active).
The term EC50 denotes the midpoint of the concentration-response curve. In general, CC50 refers to the concentration giving 50% cytotoxicity. By AC50 is commonly meant the concentration at which the activity in the assay is half-maximal. Take `Cc1ccc(N(C(=O)CCl)C(C(=O)NC2CCCCC2)c2cccnc2)cc1C` (stereo not given): the EC50 at Protein RecA was 339 nM (active); in the test on BJ [6], 147 nM (active); in the test on BJ [7], 1250 nM (active); in the test on BJ [8], 3950 nM (active); in [10], 413 nM (active); in the test on BJ [11] it was 171 nM (inconclusive). In addition, the CC50 in [5] was 100 nM (active). The AC50 in [9] was 2300 nM (active). Also, the IC50 in [12] is 34700 nM (not active).
With `Cc1ccccc1CNCc1cccnc1`, the IC50 at Coagulation factor XII was > 50000 nM (inactive).
Take `COc1ccc2cc(C)c3nnc(SCC(=O)Nc4nc(-c5ccccc5)cs4)n3c2c1`: the EC50 in [13] is 1030 nM (active).
For the molecule `CC(C)N(CCNC(=O)c1ccc(CNS(=O)(=O)c2ccc(Br)cc2)cc1)Cc1ccc(Br)cc1`, the IC50 in [14] was > 20000 nM (inactive); in test [15], 2030 nM (active); at Mu-type opioid receptor it was > 32000 nM (inactive); in test [16], > 32000 nM (inactive).
For `COc1ccc(CNC(=O)C(C)OC(=O)c2c(C)nn(Cc3ccccc3)c2Cl)cc1` (stereo not given), the EC50 in test [17] was > 50000 nM (inactive).
